From patent US20220296595A1, “CDK INHIBITORS” (QILU REGOR THERAPEUTICS INC., priority 2019, published 2022)
Like-named read-outs stand apart in the source and are kept apart here.

What was measured:
[1] = molecular target: T1, CDK4/CyclinD1 (Homo sapiens, UniProt P11802); experiment: Assay for inhibition of CDK4/CyclinD1 (Caliper microfluidic kinase assay); format: biochemical
T1 construct: purchased Thermofisher PR8064A
Method in brief: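 Caliper microfluidic mobility-shift assay tracking phosphorylation of 1 μM FL-34 peptide by 1 nM CDK4/CyclinD1 with 200 μM ATP in HEPES pH 7.5 buffer with 10 mM MgCl2. Reaction ran 3 h at room temperature, was stopped with EDTA, and IC50 came from a 4-parameter sigmoidal fit.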

[2] = system: T47D breast cancer cells; experiment: Anti-proliferation assay in T47D cell (Cyquant, day 6); format: cell-based, human; details: Homo sapiens, T47D, anti-proliferation, T47D cells; read-out: T47D IC50
Method in brief: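 Cells were grown in RPMI 1640 with 10% FBS at 37 °C and dosed the day after plating at ten concentrations, 10 μM to 0.51 nM in 3-fold steps. CyQuant fluorescence (ex 485/em 535 nm) was read on day 6. IC50 was fitted from baseline-subtracted viability curves, with the baseline read after overnight culture.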

[3] = system: phosphorylation of Retinoblastoma Protein (pRb Ser807/811 or Ser780) in T47D cells; experiment: Inhibition of phosphorylation of retinoblastoma protein (pRb) in T47D cell (ELISA); format: cell-based, human; details: Homo sapiens, T47D, read-out: Phospho T47D Ser807 IC50, pRb Ser807 phosphorylation, T47D cells
Method in brief: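 T47D cells in RPMI 1640 + 10% FBS, adhered overnight, then treated 24 h with 3-fold compound titrations (top concentration […]). Lysates assayed by sandwich ELISA for pRb Ser807/811 or Ser780 with HRP/TMB detection. IC50 from 4-parameter sigmoidal fit.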

[4] = molecular target: T2, CDK6/CyclinD3 (Homo sapiens, UniProt Q00534); experiment: Assay for inhibition of CDK6/CyclinD3 (Caliper microfluidic kinase assay); format: biochemical
T2 construct: purchased Carna 04-107
Method in brief: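 Caliper mobility-shift readout of FAM-labelled peptide (FL-34, 1 μM) phosphorylation by 2 nM CDK6/CyclinD3 at 300 μM ATP in HEPES pH 7.5 buffer with MgCl2, DTT; 3 h at room temperature, EDTA stop. IC50 from 4-parameter sigmoidal fit.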

[5] = molecular target: T3, CDK2/CyclinE1 (Homo sapiens, UniProt P24941); experiment: Assay for inhibition of CDK2/CyclinE1 (Caliper microfluidic kinase assay); format: biochemical; details: read-out: CDK2 IC50
T3 construct: purchased SignalChem C29-18G
Method in brief: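 Caliper microfluidic mobility-shift assay: 5 nM CDK2/CyclinE1, 100 μM ATP, 5 μM FL-18 peptide (5-FAM-QSPKKG-NH2) in pH 7.5 HEPES buffer with MgCl2, DTT, BSA, Triton X-100. Incubated 3 hours at room temperature, EDTA-stopped; IC50 from 4-parameter sigmoidal fit.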

T1 sequence (P11802 whole entry): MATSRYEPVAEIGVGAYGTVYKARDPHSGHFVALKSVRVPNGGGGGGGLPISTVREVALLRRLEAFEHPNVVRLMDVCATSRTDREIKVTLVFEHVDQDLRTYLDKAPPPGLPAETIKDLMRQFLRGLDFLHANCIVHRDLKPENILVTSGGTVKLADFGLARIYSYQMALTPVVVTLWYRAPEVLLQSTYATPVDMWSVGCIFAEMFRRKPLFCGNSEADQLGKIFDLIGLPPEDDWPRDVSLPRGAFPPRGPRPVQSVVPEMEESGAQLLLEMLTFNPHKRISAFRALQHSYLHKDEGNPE
T1 sequence (P24385 whole entry partner): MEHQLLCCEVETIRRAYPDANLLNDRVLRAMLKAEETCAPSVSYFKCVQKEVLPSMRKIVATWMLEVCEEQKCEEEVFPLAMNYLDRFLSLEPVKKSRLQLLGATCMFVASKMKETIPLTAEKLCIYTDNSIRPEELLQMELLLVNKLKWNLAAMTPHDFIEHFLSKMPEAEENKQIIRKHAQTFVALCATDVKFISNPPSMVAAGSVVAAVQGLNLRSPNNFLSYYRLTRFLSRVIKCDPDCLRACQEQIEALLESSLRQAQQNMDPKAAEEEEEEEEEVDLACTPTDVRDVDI
T2 sequence (Q00534 whole entry): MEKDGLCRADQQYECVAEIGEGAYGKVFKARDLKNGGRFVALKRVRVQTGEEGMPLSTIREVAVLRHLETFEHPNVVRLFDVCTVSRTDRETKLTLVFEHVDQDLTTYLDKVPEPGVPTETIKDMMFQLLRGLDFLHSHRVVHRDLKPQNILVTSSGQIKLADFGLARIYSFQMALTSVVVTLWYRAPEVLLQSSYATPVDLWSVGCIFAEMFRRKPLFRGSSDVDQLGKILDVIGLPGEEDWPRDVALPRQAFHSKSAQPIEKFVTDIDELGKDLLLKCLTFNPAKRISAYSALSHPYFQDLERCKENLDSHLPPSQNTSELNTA
T2 sequence (P30281 whole entry partner): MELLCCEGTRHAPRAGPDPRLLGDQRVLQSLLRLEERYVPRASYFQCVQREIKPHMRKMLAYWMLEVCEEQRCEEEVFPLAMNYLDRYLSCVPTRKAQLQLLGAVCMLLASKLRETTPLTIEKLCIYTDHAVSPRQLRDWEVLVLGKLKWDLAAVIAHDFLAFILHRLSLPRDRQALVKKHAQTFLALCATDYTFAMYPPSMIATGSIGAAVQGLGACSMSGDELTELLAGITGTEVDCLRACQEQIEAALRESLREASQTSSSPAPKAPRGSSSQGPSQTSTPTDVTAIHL

| Compound | IC50 ([1]; CDK4/CyclinD1) [nM] | IC50 [2] [nM] | IC50 [3] [nM] | IC50 ([4]; CDK6/CyclinD3) [nM] | IC50 ([5]; CDK2/CyclinE1) [nM] | IC50 ([1]; CDK4/CyclinD1, 200 μM ATP) [nM] | IC50 ([4]; CDK6/CyclinD3, 300 μM ATP) [nM] | IC50 ([5]; CDK2/CyclinE1, 100 μM ATP) [nM] |
| --- | --- | --- | --- | --- | --- | --- | --- | --- |
| COc1nc(-c2ccnc(Nc3ccc(N4CCC(N(C)C)CC4=O)cn3)n2)cc2c1ncn2C(C)C (stereo not drawn) [compound 91] | < 10 | < 100 | < 100 | < 10 | 100 to 1000 | – | – | – |
| COc1nc(-c2nc(Nc3ccc(N4CCOCC4=O)cn3)ncc2Cl)cc2c1nc(C)n2C(C)C [compound 83] | < 10 | < 100 | < 100 | < 10 | 100 to 1000 | – | – | – |
| CC(C)c1cnn2ccc(-c3nc(Nc4ccc(S(N)(=O)=O)cc4)ncc3F)cc12 [compound 27] | – | < 100 | 100 to 500 | – | – | 10 to 100 | 100 to 1000 | < 10 |
| CCN1CCN(Cc2ccc(Nc3nccc(-c4cc5c(ncn5C(C)C)c(F)n4)n3)nc2)CC1 [compound 285] | – | < 100 | < 100 | – | – | < 10 | 10 to 100 | > 1000 |
| CC(C)c1cnn2cc(-c3ccnc(Nc4ccc(N5CCNCCC5=O)cn4)n3)ccc12 [compound 31] | – | < 100 | < 100 | – | – | < 10 | 10 to 100 | 10 to 100 |
| CN(C)C1CCN(c2ccc(Nc3nccc(-c4cc(F)c5c(c4)C(C)(C)CO5)n3)nc2)C(=O)C1 (stereo not drawn) [compound 259] | – | < 100 | < 100 | – | – | < 10 | 10 to 100 | 10 to 100 |
| COc1nc(-c2ccnc(Nc3ccc(N4CCC(N5CC(F)(F)C5)CC4=O)cn3)n2)cc2c1ncn2C(C)C (stereo not drawn) [compound 315] | < 10 | 100 to 500 | < 100 | 10 to 100 | 100 to 1000 | – | – | – |
| COc1nc(-c2nc(Nc3ccc(N4CCNCC4=O)c(F)c3)ncc2F)cc2c1ncn2C(C)C [compound 115] | – | 100 to 500 | 100 to 500 | – | – | < 10 | 10 to 100 | 10 to 100 |
| COc1nc(-c2nc(Nc3ccc(N4CCOCC4=O)cn3)ncc2F)cc2c1ncn2C(C)C [compound 78] | < 10 | < 100 | < 100 | 10 to 100 | 100 to 1000 | – | – | – |
| CC(C)c1cnn2ccc(-c3ccnc(Nc4ccc(N5CCN(C6CCNCC6)CC5=O)cn4)n3)cc12 [compound 41] | – | < 100 | < 100 | – | – | < 10 | 10 to 100 | 10 to 100 |
| CC(C)c1cnn2ccc(-c3ccnc(Nc4ccc(N5CCNC5=O)cn4)n3)cc12 [compound 163] | – | < 100 | < 100 | – | – | < 10 | 10 to 100 | 10 to 100 |
| Cc1nn2ccc(-c3ccnc(Nc4ccc(N5CCNCC5=O)cn4)n3)cc2c1C(C)C [compound 192] | – | < 100 | < 100 | – | – | < 10 | 10 to 100 | 10 to 100 |
| CC(C)c1cnn2ccc(-c3ccnc(Nc4ccc(N5CCC(N6CCNCC6)CC5=O)cn4)n3)cc12 (stereo not drawn) [compound 200] | – | < 100 | < 100 | – | – | < 10 | 10 to 100 | 10 to 100 |
| CC(C)c1cnn2ccc(-c3nc(Nc4ccc(N5CC6CCC(CC5=O)N6)cn4)ncc3F)cc12 (stereo not drawn) [compound 199] | – | < 100 | < 100 | – | – | < 10 | < 10 | 10 to 100 |
| CC(C)n1cnc2c(F)nc(-c3ccnc(Nc4ccc(N5CCCC(N)C5=O)cc4)n3)cc21 (stereo not drawn) [compound 293] | – | < 100 | < 100 | – | – | < 10 | < 10 | 10 to 100 |
| CC(C)c1cnn2ccc(-c3ccnc(Nc4ccc(N5CCCNCC5=O)cn4)n3)cc12 [compound 30] | – | 100 to 500 | < 100 | – | – | < 10 | 10 to 100 | 10 to 100 |
| CC(C)c1cnn2ccc(-c3ccnc(Nc4ccc(C(=O)N(C)C)cc4)n3)cc12 [compound 167] | – | < 100 | < 100 | – | – | < 10 | 10 to 100 | < 10 |
| CC(C)n1cnc2c(F)nc(-c3ccnc(Nc4ccc(N5CCC(N(C)C)CC5=O)cc4)n3)cc21 (stereo not drawn) [compound 281] | – | < 100 | < 100 | – | – | < 10 | < 10 | < 10 |
| COc1nc(-c2nc(Nc3ccc(N4CCNCC4=O)cc3F)ncc2F)cc2c1ncn2C(C)C [compound 111] | – | 100 to 500 | 100 to 500 | – | – | < 10 | 10 to 100 | 10 to 100 |
| CCN1CCC(Cn2ccc(Nc3ncc(F)c(-c4ccn5ncc(C(C)C)c5c4)n3)cc2=O)CC1 [compound 44] | – | > 1000 | 500 to 1000 | – | – | < 10 | 10 to 100 | 100 to 1000 |
| CC(C)c1cnn2ccc(-c3nc(Nc4ccc(N5CCC(N6CC(F)(F)C6)CC5=O)cn4)ncc3F)cc12 (stereo not drawn) [compound 158] | – | < 100 | < 100 | – | – | < 10 | 10 to 100 | 10 to 100 |
| CC(C)c1cnn2ccc(-c3nc(Nc4ccc(N5CCC(NC6CC(F)(F)C6)CC5=O)cn4)ncc3F)cc12 (stereo not drawn) [compound 159] | – | < 100 | < 100 | – | – | < 10 | 10 to 100 | 10 to 100 |
| COc1nc(-c2nc(Nc3ccc(N4CCOCCC4=O)cn3)ncc2F)cc2c1nc(C)n2C(C)C [compound 73] | < 10 | 500 to 1000 | < 100 | 10 to 100 | > 1000 | – | – | – |
| COc1nc(-c2nc(Nc3ccc(N4CCC(N(C)C)CC4)cn3)ncc2F)cc2c1nc(C)n2C(C)C [compound 94] | < 10 | < 100 | 100 to 500 | 10 to 100 | > 1000 | – | – | – |
| COc1nc(-c2nc(Nc3ccc(N4CCC(N(C)C)CC4=O)cn3)ncc2F)cc2c1nc(C)n2C(C)C (stereo not drawn) [Synthetic Example 62, 4-(dimethylamino)-1-[6-[[5-fluoro-4-(1-isopropyl-4-methoxy-2-methyl-imidazo[4,5-c]pyridin-6-yl)pyrimidin-2-yl]amino]-3-pyridyl]piperidin-2-one] | – | < 100 | < 100 | – | – | < 10 | 10 to 100 | > 1000 |
| CC(C)n1cnc2c(F)nc(-c3ccnc(Nc4ccc(N5CCC(N(C)C)CC5=O)cn4)n3)cc21 (stereo not drawn) [compound 270] | – | < 100 | < 100 | – | – | < 10 | < 10 | 10 to 100 |
| CC(C)(C)c1cnn2ccc(-c3ccnc(Nc4ccc(N5CCNCCC5=O)cn4)n3)cc12 [compound 197] | – | < 100 | < 100 | – | – | < 10 | 10 to 100 | 10 to 100 |
| CC(C)c1cnn2ccc(-c3ccnc(Nc4ccc(N5CCN(S(C)(=O)=O)CCC5=O)cn4)n3)cc12 [compound 236] | – | < 100 | < 100 | – | – | < 10 | < 10 | 10 to 100 |
| CC(C)n1cnc2c1CN(c1ccnc(Nc3ccc(N4CCC(N(C)C)CC4=O)cn3)n1)CC2 (stereo not drawn) [compound 245] | – | 500 to 1000 | 100 to 500 | – | – | < 10 | 100 to 1000 | 10 to 100 |
| CC(C)n1cnc2c(F)nc(-c3ccnc(Nc4ccc(N5CC6CC5CN6)cn4)n3)cc21 (stereo not drawn) [compound 272] | – | < 100 | < 100 | – | – | < 10 | 10 to 100 | 100 to 1000 |
